Assays:
[1] = Immunosuppressive activity against LPS induced B-cells proliferation; type: functional, cell-based; conditions: B-cell
[2] = Immunosuppressive activity against ConA induced T-cells proliferation; type: functional, cell-based; conditions: T-cell

| SMILES | IC50 [1] | IC50 [2] |
| --- | --- | --- |
| CC1=C[C@H](O)[C@@H]2[C@@]3(C)CC[C@H](O)C(C)(C)[C@@H]3CC[C@@]2(C)[C@]12Cc1c(c(C)c(C)oc1=O)O2 | 4.6 µM | 4.1 µM |
| CC1=C[C@H](O)[C@@H]2[C@@]3(C)C=CC(=O)C(C)(C)[C@@H]3CC[C@@]2(C)[C@]12Cc1c(c(C)c(C)oc1=O)O2 | 7.5 µM | 4.7 µM |
| CC1=C[C@H](O)[C@@H]2[C@@]3(C)[C@H](O)CC(=O)C(C)(C)[C@@H]3CC[C@@]2(C)[C@]12Cc1c(c(C)c(C)oc1=O)O2 | 13 µM | 12 µM |
| CC1=C[C@H](O)[C@@H]2[C@@]3(C)[C@H](O)[C@@H](O)[C@H](O)C(C)(C)[C@@H]3CC[C@@]2(C)[C@]12Cc1c(c(C)c(C)oc1=O)O2 | 6.3 µM | 7.3 µM |
| CC1=CC[C@@H]2[C@@]3(C)C=CC(=O)C(C)(C)[C@@H]3CC[C@@]2(C)[C@]12Cc1c(c(C)c(C)oc1=O)O2 | 6.7 µM | 4.8 µM |
| CC1=CC[C@@H]2[C@@]3(C)CCC(=O)C(C)(C)[C@@H]3CC[C@@]2(C)[C@]12Cc1c(c(C)c(C)oc1=O)O2 | 17 µM | 17 µM |
| CC1=C[C@H](O)[C@@H]2[C@@]3(C)CCC(=O)C(C)(C)[C@@H]3CC[C@@]2(C)[C@]12Cc1c(c(C)c(C)oc1=O)O2 | 18 µM | 11 µM |

Source: ChEMBL document CHEMBL6127105, “Immunosuppressive Breviane Spiroditerpenoids from Penicillium bialowiezense Isolated from a Medicinal Plant” (J Nat Prod, 2024)
